From article PMC6442460 (Journal of chemical information and modeling, 2018)
Where two headings read alike, the source gives them in different places.

Assays:
[1] = biological target: T1, ECL (Erythrina cristagalli lectin) (Erythrina crista-galli, UniProt P83410); details: cited from earlier work
T1 sequence (P83410 1-239): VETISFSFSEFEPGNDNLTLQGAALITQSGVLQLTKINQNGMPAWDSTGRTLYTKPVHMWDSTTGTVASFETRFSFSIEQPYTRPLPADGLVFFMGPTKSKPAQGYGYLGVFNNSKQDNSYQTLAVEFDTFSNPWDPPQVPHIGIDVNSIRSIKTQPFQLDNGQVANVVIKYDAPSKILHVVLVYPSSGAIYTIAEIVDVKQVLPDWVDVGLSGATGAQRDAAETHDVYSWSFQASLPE

[2] = biological target: T1, ECL (Erythrina cristagalli lectin); details: cited from earlier work; remark: listed apart in the source
[3] = biological target: T1, ECL (Erythrina cristagalli lectin); assay: Protein BLI inhibition; assay type: binding; details: for ΔG: binding free energy from BLI KD, standard deviations in parentheses; for affinity for ECL (result in words): BLI
[4] = biological target: T1, ECL (Erythrina cristagalli lectin); details: cited from earlier work; remark: listed apart in the source
[5] = biological target: T1, ECL (Erythrina cristagalli lectin); assay: Isothermal titration calorimetry; assay type: binding; details: relative to 1

Structure (SMILES): O=C[C@@H](O)[C@H](O)[C@H](O)CO [D-Ara]
- inhibitory power relative to D-Gal (result in words) [1]: poor inhibitors

Structure (SMILES): OC[C@H]1OC(O)[C@H](O)[C@@H](O)[C@H]1O (stereo partly drawn) [D-Gal, reference compound]
- reference ΔG ([2]; ITC at 25 °C): –4.0 (<0.1) kcal/mol

Structure (SMILES): CC(=O)N[C@H]1C(O)O[C@H](CO)[C@@H](O)[C@@H]1O (stereo partly drawn) [D-GlcNAc]
- inhibitory power relative to D-Gal (result in words) [1]: poor inhibitors

Structure (SMILES): OC[C@H]1OC(O)[C@H](O)[C@@H](O)[C@@H]1O (stereo partly drawn) [D-Glc]
- inhibitory power relative to D-Gal (result in words) [1]: poor inhibitors

Structure (SMILES): C[C@@H]1OC(O)[C@@H](O)[C@H](O)[C@@H]1O (stereo partly drawn) [L-Fuc]
- inhibitory power relative to D-Gal (result in words) [1]: poor inhibitors

Structure (SMILES): OC[C@H]1O[C@@H](O[C@H]2[C@H](O)[C@@H](O)[C@H](O)O[C@@H]2CO)[C@H](O)[C@@H](O)[C@H]1O [ligand 1, lactose]
- reference ΔG ([2]; ITC at 25 °C): –4.8 (<0.1) kcal/mol
- reference ΔG ([2]; ITC at 27 °C): –4.9 (0.2) kcal/mol
- ΔG [3]: –4.83 (0.04) kcal/mol
- binding in glycan array screening of ECL [4]: nonbinders

Structure (SMILES): OC[C@H]1O[C@@H](O[C@H]2[C@H](O)[C@H](O)C(O)O[C@@H]2CO)[C@H](O)[C@@H](O)[C@H]1O (stereo partly drawn) [ligand 2, epi-lactose]
- ΔG [3]: –5.08 (0.02) kcal/mol

Structure (SMILES): CC(=O)N[C@H]1C(O)O[C@H](CO)[C@@H](O[C@@H]2O[C@H](CO)[C@H](O)[C@H](O)[C@H]2O)[C@@H]1O (stereo partly shown) [ligand 3, N-acetyllactosamine]
- reference ΔG ([2]; ITC at 27 °C): –5.5 (0.1) kcal/mol
- ΔG [3]: –5.66 (0.04) kcal/mol
- fold higher affinity of ECL [5]: about 3 fold
- binding in glycan array screening of ECL [4]: binders

Structure (SMILES): CC(=O)N[C@H]1[C@H](O[C@H]2[C@H](O)[C@@H](NC(C)=O)C(O)O[C@@H]2CO)O[C@H](CO)[C@H](O)[C@@H]1O (stereo partly shown) [ligand 4, N,N-diacetyllactosamine]
- binding in glycan array screening of ECL [4]: binders

Structure (SMILES): C[C@@H]1O[C@@H](O[C@H]2[C@H](O[C@H]3[C@H](O)[C@@H](O)C(O)O[C@@H]3CO)O[C@H](CO)[C@H](O)[C@@H]2O)[C@@H](O)[C@H](O)[C@@H]1O (stereo partly shown) [ligand 5, fucosylated lactose]
- reference ΔG ([2]; ITC at 25 °C): –4.8 (<0.1) kcal/mol
- ΔG [3]: –5.04 (0.06) kcal/mol
- binding in glycan array screening of ECL [4]: nonbinders

Structure (SMILES): CC(=O)N[C@H]1C(O)O[C@H](CO)[C@@H](O[C@@H]2O[C@H](CO)[C@H](O)[C@H](O)[C@H]2O[C@@H]2O[C@@H](C)[C@@H](O)[C@@H](O)[C@@H]2O)[C@@H]1O (stereo partly shown) [ligand 6, fucosylated N-acetyllactosamine]
- ΔG [3]: –6.21 (0.14) kcal/mol
- binding in glycan array screening of ECL [4]: binders

Structure (SMILES): O=C[C@H](O)[C@@H](O)[C@H](O[C@@H]1O[C@H](CO)[C@@H](O)[C@H](O)[C@H]1O)[C@H](O)CO [ligand 7, cellobiose]
- affinity for ECL (result in words) [3]: Neither cellobiose (Glcβ1–4Glcβ, 7) nor maltose (Glcα1–4Glcβ, 8) shows any measurable affinity

Structure (SMILES): OC[C@H]1O[C@H](O[C@H]2[C@H](O)[C@@H](O)[C@H](O)O[C@@H]2CO)[C@H](O)[C@@H](O)[C@@H]1O [ligand 8, maltose]
- affinity for ECL (result in words) [3]: Neither cellobiose (Glcβ1–4Glcβ, 7) nor maltose (Glcα1–4Glcβ, 8) shows any measurable affinity
